In patent US20140066431A1, “Benzoxazepines as Inhibitors of PI3K/mTOR and Methods of Their Use and Manufacture” (Exelixis, Inc., priority 2010, published 2014):
Read-outs that look alike come from different tables or passages of the source.

What was measured:
PI3Kα = PI3Kα (Homo sapiens, UniProt P42336); test: PI3K biochemical assay (ATP consumption, luciferase-luciferin)
Description: (§1) PI3Kα activity is measured as the percent of ATP consumed following the kinase reaction using luciferase-luciferin-coupled chemiluminescence. Reactions were conducted in 384-well white, medium binding microtiter plates (Greiner). Kinase reactions were initiated by combining test compounds, ATP, substrate (PIP2), and kinase in a 20 μL volume in a buffer solution. The standard PI3Kalpha assay buffer is composed 50 mM Tris, pH 7.5, 1 mM EGTA, 10 mM MgCl2, 1 mM DTT and 0.03% CHAPS. The standard assay concentrations for enzyme, ATP, and substrate are 1.5 nM, 1 μM, and 10 μM, respectively. The reaction mixture was incubated at ambient temperature for approximately 2 h. Following the kinase reaction, a 10 μL aliquot of luciferase-luciferin mix (Promega Kinase-Glo) was added and the chemiluminescence signal measured using a Victor2 plate reader (Perkin Elmer). Total ATP consumption was limited to 40-60% and IC50 values of control compounds correlate well with literature references. Substituting PI3Kα with PI3Kβ, PI3Kγ, or PI3Kδ, the inhibitory activity of the compounds for the other isoforms of I3K were measured.

PI3Kγ = PI3Kγ (Homo sapiens, UniProt P48736); test: PI3K biochemical assay, PI3Kγ; conditions: PIP2 as substrate
Description: as §1

[1] = tested on: MCF-7 cells (PI3Kα-E545K mutant); test: pAKT (T308) ELISA assay, MCF-7; assay type: cell-based; conditions: Homo sapiens, MCF7
Description: MCF-7 cells (ATCC) cells were seeded at 24000 cells per well in 96-well plates (Corning, 3904) in DMEM (Cellgro) containing 10% FBS (Cellgro), 1% NEAA (Cellgro) and 1% penicillin-streptomycin (Cellgro). Cells were incubated at 37° C., 5% CO2 for 48 h, and the growth medium was replaced with serum-free DMEM or in medium containing 0.4% BSA. Serial dilutions of the test compound in 0.3% DMSO (vehicle) were added to the cells and incubated for 3 h. At the end of the incubation period, cells were stimulated for 10 minutes by the addition of L-IGF (Sigma, I-1271) at a final concentration of 100 ng/ml. Afterwards, media was discarded from cell plates and 110 μl/well of cold lysis buffer (see table below) were added. Cell plates were incubated on ice and then put on shaker in 4° C. cold room for 1 h. Two capture plates (Thermo Scientific, Reacti-bind plate, 15042) were prepared for each cell plate by pre-coating with capture Akt antibody from the two sandwich ELISA antibody pairs used (Cell Signaling Technology 7142 and 7144). The Akt capture antibodies were diluted 1:100 in PBS and […] of diluted capture antibody was added per well. […] After 1 minute incubation, chemiluminescence was read on a Wallac Victor2 1420 multilabel counter. IC50 values were determined based on the ratio of pAkt(T308) to total Akt1 signal for compound treated wells, normalized to the DMSO-treated control wells. […]

PI3Kα, sequence (P42336 whole entry): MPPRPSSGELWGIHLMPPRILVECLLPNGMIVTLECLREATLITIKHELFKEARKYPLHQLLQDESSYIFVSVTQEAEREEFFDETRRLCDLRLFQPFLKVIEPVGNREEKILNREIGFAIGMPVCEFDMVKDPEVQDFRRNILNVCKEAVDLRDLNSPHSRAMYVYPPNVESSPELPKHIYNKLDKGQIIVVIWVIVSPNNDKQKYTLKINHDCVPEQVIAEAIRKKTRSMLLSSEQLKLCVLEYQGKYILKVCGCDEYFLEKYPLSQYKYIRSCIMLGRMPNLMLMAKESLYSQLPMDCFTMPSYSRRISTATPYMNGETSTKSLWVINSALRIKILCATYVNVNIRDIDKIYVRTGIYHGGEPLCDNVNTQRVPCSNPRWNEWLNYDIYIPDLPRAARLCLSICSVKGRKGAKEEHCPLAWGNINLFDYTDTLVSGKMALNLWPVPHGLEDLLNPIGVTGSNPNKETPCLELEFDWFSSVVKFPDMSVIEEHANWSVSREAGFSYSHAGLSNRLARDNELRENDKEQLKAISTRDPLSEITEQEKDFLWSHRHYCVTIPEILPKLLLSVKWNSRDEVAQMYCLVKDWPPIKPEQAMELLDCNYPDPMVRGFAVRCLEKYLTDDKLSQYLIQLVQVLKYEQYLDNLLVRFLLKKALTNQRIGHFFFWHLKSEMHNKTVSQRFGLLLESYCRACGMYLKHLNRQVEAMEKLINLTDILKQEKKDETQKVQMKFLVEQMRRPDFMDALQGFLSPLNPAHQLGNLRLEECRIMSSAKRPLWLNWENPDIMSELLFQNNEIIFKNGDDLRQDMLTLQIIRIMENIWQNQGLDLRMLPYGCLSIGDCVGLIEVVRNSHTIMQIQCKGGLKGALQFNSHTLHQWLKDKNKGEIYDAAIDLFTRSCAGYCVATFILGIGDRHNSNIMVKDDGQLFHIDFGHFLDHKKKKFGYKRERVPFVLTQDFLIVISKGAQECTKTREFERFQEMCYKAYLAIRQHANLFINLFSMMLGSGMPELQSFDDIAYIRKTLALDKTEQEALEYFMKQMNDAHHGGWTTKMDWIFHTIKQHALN
PI3Kα, sequence (P27986 whole entry partner): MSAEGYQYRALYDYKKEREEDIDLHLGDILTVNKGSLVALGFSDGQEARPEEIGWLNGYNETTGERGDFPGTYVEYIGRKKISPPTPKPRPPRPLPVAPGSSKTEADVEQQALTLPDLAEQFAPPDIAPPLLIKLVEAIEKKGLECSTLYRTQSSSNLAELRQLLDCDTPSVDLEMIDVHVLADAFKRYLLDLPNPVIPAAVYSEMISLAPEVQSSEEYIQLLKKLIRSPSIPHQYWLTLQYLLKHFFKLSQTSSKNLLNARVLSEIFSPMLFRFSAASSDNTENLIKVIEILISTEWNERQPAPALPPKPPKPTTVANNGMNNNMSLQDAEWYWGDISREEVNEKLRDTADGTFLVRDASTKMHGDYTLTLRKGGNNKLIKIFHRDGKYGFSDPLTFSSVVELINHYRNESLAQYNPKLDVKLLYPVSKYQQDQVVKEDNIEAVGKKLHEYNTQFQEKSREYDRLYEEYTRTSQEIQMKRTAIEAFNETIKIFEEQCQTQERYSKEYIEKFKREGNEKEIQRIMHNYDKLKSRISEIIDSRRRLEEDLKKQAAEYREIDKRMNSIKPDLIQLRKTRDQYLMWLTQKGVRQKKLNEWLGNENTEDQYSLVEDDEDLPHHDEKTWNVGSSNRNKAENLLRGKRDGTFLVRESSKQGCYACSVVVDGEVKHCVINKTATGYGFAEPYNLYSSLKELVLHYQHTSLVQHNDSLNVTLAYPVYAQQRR
PI3Kγ, sequence (P48736 whole entry): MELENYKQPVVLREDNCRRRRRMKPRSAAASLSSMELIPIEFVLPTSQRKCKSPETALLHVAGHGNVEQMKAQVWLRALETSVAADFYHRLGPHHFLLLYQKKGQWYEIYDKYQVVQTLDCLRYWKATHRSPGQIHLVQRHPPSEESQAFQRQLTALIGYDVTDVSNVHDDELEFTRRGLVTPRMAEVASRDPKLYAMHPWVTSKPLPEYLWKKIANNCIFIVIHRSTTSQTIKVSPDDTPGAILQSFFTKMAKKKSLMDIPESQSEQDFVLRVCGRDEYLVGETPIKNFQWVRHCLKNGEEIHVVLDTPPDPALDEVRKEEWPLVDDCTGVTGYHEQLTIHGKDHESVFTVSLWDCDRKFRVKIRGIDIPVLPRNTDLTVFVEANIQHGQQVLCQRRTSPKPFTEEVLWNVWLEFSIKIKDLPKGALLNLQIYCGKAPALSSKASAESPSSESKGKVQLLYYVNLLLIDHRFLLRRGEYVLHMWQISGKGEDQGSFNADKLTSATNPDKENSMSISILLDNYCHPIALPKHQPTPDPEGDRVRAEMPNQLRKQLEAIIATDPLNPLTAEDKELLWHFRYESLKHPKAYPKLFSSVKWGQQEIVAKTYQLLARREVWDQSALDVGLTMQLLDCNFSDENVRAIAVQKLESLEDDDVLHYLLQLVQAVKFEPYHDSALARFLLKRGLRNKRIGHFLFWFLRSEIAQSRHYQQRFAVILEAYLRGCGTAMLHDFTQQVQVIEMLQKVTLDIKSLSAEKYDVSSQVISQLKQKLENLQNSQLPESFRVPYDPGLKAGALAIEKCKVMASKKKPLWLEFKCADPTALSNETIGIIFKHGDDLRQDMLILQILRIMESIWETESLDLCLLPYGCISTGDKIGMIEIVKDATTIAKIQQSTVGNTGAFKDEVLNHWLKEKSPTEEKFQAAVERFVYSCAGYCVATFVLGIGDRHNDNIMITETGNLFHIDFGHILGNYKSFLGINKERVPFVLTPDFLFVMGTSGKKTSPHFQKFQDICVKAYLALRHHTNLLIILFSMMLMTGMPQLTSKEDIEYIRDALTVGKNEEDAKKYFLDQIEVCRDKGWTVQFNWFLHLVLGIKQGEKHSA

`Cc1cc(C(C)Nc2ccccc2)c2nc(N3CCOCC3)cc(=O)n2c1` (centres unmarked) [TGX-221, 7-methyl-2-(4-morpholinyl)-9-[1-(phenylamino)ethyl]-4H-pyrido[1,2-a]pyrimidin-4-one] gave an IC50 (PI3Kα; PIP2 as substrate, read-out: PI3K biochemical IC50 PI3Kα) of 1.78 µM, an IC50 (PI3Kα; Table 5, read-out: Biochemical IC50 PI3Kα) of 1.78 µM and an IC50 (PI3Kγ) of 1.68 µM. It also gave an IC50 ([1]; IGF1 stimulation, Table 5, read-out: pAKT (T308) IC50 MCF-7 PI3Kα E545K IGF1) of 1.76 µM and an IC50 ([1]; PI3KαE545K, Table 6, read-out: Cellular pAKT (T308) IC50 MCF-7) of over 30 µM.
